Experimental data reported in patent publication US20260000632A1, “STRUCTURALLY MODIFIED FATTY ACIDS FOR IMPROVING GLYCEMIC CONTROL AND TREATING INFLAMMATORY BOWEL DISEASE” (Northsea Therapeutics B.V., priority 2018, published 2026).

Tests used:
plasma insulin = experiment: Plasma insulin at 24 h in lean male SPD rats; type: in vivo, rat; conditions: Compound A 74 mg/kg or Compound B 84 mg/kg oral, non-significant
Description: (§1) To establish the acute effects of oral administration of Compound A and Compound B upon active GLP-1 and insulin concentrations, lean (about 300 g) male Sprague-Dawley (SPD) rats were divided into groups (n=6-8) and fed 74 and 84 mg/kg body weight of Compound A or Compound B respectively, either with or without concurrent administration of a dipeptidyl peptidase 4 (DPP-4) inhibitor 60 minutes prior to an oral glucose tolerance test (OGTT) as outlined below. Parallel groups receiving either corn oil alone (corn oil+vehicle, n=10) or corn oil and a DPP-4 inhibitor (“DPP-4 i”) (corn oil+ (DPP-4 i), n=10) were included as controls. The DPP-4 inhibitor was linagliptin.
(§2) A second oral dose of 74 and 84 mg/kg bodyweight of Compound A or Compound B respectively was administered at 240 minutes and ad lib feeding was initiated. A second dose of DPP-4 inhibitor was administered at 480 mins prior to lights out. Blood samples were collected at 24 h for measurement of active GLP-1 and insulin. All values are mean, figures depict mean values (SEM).

[1] = system: B6.V-Lepob/Jrj mice (ob/ob); experiment: Glucose tolerance (0-120 mins) after 28-day treatment in ob/ob mice; type: in vivo, mouse; conditions: 28 days
Description: This study was carried out to assess the effects of chronic treatment with Compound B or Compound A on glucose tolerance in a T2DM rodent model.
For assessing the effects of Compound B, B6.V-Lepob/Jrj mice (ob/ob) mice were administered Compound B at one of 2 doses, 125 and 250 mg/kg for 28 days. […] After the oral glucose load, plasma glucose was measured at multiple time points from and AUC (0-120 mins) for glucose was calculated.

atherogenic lipids = conditions: APOE*3.CETP mice; cited from earlier work
[2] = Intestinal tissue distribution of radioactivity by quantitative whole-body autoradiography (QWBA); type: in vivo; conditions: male albino rat, single oral [14C]-Compound B 50 mg/kg
Description: This study was conducted to determine the intestinal tissue distribution of radioactivity in male albino rats following a single oral administration of [14C]-Compound B using quantitative whole-body autoradiography (QWBA). The tissue distribution in rats following a single oral dose of [14C]-Compound B at 50 mg/kg (ca 5 MBq/kg) was studied by QWBA analysis up to 168 hours after dosing.

active GLP-1 = experiment: Active GLP-1 during oral glucose tolerance test (OGTT) and at 24 h in lean male SPD rats; type: in vivo, rat
Description: as §1, §2

[3] = system: IL6, IL1b, S100A8, TNFα, Reg3g, IL17a mRNA; experiment: Colonic mRNA levels of cytokines and biomarkers by real-time PCR in DSS-induced colitis mice; type: in vivo, mouse; conditions: 126 and 252 mg/kg per day, relative to HPRT
Description: The C56BL/6J mouse is a strain susceptible to DSS-induced colitis. To evaluate the efficacy and dosage of Compound B in treatment of DSS-induced colitis, inflammation was induced in 30 9-week old C56BL/6J mice by adding 1.5% DSS to the drinking water for 7 days. The mice were fed a standard chow diet that consisted of 30 weight percent wheat. The mice were divided into three groups of 10, and for each day of DSS administration each group was administered via oral gavage either (1) 100 μL corn oil per day (Control), (2) 126 mg/kg Compound B (dissolved in 100 μL corn oil) per day (“Compound B-Low” or “Compound B-L”), or (3) 252 mg/kg Compound B (dissolved in 100 μL corn oil) per day (“Compound B-High” or “Compound B-H”). Following the 7-day period of DSS induction, mice were sacrificed and their intestinal tissue was used for histopathological and gene expression analysis.
To evaluate the effect of treatment with Compound B on the levels of proinflammatory cytokines and biomarkers, total RNA was extracted from small and large intestinal tissue samples (>100 mg). cDNA was synthesized by reverse transcription and analyzed by real-time PCR. Results were normalized to the level of the housekeeping gene hypoxanthine guanine phosphoribosyltransferase (HPRT). The relative mRNA expression of the tested gene relative to HPRT expression was calculated using the 2^−ΔΔCt method as described in Pickert et al., J. Exp. Med., 2009, 206:1465-1472. Interleukin 6 (IL6), IL1b, calgranulin-A (S100A8), and tumor necrosis factor α (TNFα) have been implicated as mediators of IBD, including both ulcerative colitis and Crohn's disease. IL6, IL1b, and calgranulin-A are prominently expressed in inflammatory macrophages. IL22-dependent regenerating islet-derived 3 gamma (Reg3g) is induced in response to inflammation in epithelial cells. IL17 is secreted by Th17 T helper cells and innate lymphoid cells type 3 (ILC3).

[4] = 1 hour, *affected by high levels of radioactivity in adjacent contents
[5] = 2 hours, *affected by high levels of radioactivity in adjacent contents
[6] = 4 hours, *affected by high levels of radioactivity in adjacent contents
[7] = 8 hours, *affected by high levels of radioactivity in adjacent contents

CC/C=C\C/C=C\C/C=C\C/C=C\C/C=C\CCCCSC(CC)(CC)C(=O)O [Compound B, 2-ethyl-2-((5Z,8Z,11 Z,14Z,17Z)-icosa-5,8,11,14,17-pentaenylthio)butanoic acid]
Increase in plasma insulin concentration at 24 h versus corn oil+vehicle and corn oil+DPP4 inhibitor (plasma insulin; compound alone): 25%
Increase in plasma insulin concentration at 24 h versus corn oil+vehicle and corn oil+DPP4 inhibitor (plasma insulin; in combination with DPP4 inhibitor): 40%
AUC (0-120 mins) glucose ([1]; 250 mg/kg once-daily oral gavage): potent and highly significant (p<0.001) reduction
Glucose tolerance after 2 g/kg oral glucose load ([1]; both doses, 125 and 250 mg/kg once-daily oral gavage): improved glucose tolerance
Effect on atherogenic lipids (atherogenic lipids): significantly reduce atherogenic lipids
Time of peak concentrations in the small intestinal mucosa [2]: 4 h
Radioactivity concentration, Caecum mucosa ([2]; 1 hour): 1.04 μg equivalents of Compound B/g of tissue
Radioactivity concentration, Large intestine mucosa ([2]; 1 hour): 0.740 μg equivalents of Compound B/g of tissue
Radioactivity concentration, Oesophageal wall ([2]; 1 hour): 5.83 μg equivalents of Compound B/g of tissue
Radioactivity concentration, Rectum mucosa ([2]; 1 hour): 0.417 μg equivalents of Compound B/g of tissue
Radioactivity concentration, Stomach mucosa (fundus) ([2]; 1 hour): 8.08 μg equivalents of Compound B/g of tissue
Radioactivity concentration, Small intestine mucosa [2, 4]: 127* μg equivalents of Compound B/g of tissue
Radioactivity concentration, Stomach mucosa (non-fundic) [2, 4]: 17.3* μg equivalents of Compound B/g of tissue
Radioactivity concentration, Caecum mucosa ([2]; 2 hours): 1.73 μg equivalents of Compound B/g of tissue
Radioactivity concentration, Large intestine mucosa ([2]; 2 hours): 0.332 μg equivalents of Compound B/g of tissue
Radioactivity concentration, Oesophageal wall ([2]; 2 hours): 1.72 μg equivalents of Compound B/g of tissue
Radioactivity concentration, Rectum mucosa ([2]; 2 hours): 0.883 μg equivalents of Compound B/g of tissue
Radioactivity concentration, Stomach mucosa (fundus) ([2]; 2 hours): 4.31 μg equivalents of Compound B/g of tissue
Radioactivity concentration, Small intestine mucosa [2, 5]: 56.5* μg equivalents of Compound B/g of tissue
Radioactivity concentration, Stomach mucosa (non-fundic) [2, 5]: 28.1* μg equivalents of Compound B/g of tissue
Radioactivity concentration, Large intestine mucosa ([2]; 4 hours): 0.920 μg equivalents of Compound B/g of tissue
Radioactivity concentration, Oesophageal wall ([2]; 4 hours): 1.29 μg equivalents of Compound B/g of tissue
Radioactivity concentration, Rectum mucosa ([2]; 4 hours): 1.03 μg equivalents of Compound B/g of tissue
Radioactivity concentration, Stomach mucosa (fundus) ([2]; 4 hours): 5.38 μg equivalents of Compound B/g of tissue
Radioactivity concentration, Caecum mucosa [2, 6]: 93.1* μg equivalents of Compound B/g of tissue
Radioactivity concentration, Small intestine mucosa [2, 6]: 158* μg equivalents of Compound B/g of tissue
Radioactivity concentration, Stomach mucosa (non-fundic) [2, 6]: 300* μg equivalents of Compound B/g of tissue
Radioactivity concentration, Oesophageal wall ([2]; 8 hours): 5.86 μg equivalents of Compound B/g of tissue
Radioactivity concentration, Small intestine mucosa ([2]; 8 hours): 42.7 μg equivalents of Compound B/g of tissue
Radioactivity concentration, Stomach mucosa (fundus) ([2]; 8 hours): 7.84 μg equivalents of Compound B/g of tissue
Radioactivity concentration, Caecum mucosa [2, 7]: 112* μg equivalents of Compound B/g of tissue
Radioactivity concentration, Large intestine mucosa [2, 7]: 120* μg equivalents of Compound B/g of tissue
Radioactivity concentration, Rectum mucosa [2, 7]: 3.57* μg equivalents of Compound B/g of tissue
Radioactivity concentration, Stomach mucosa (non-fundic) [2, 7]: 252* μg equivalents of Compound B/g of tissue
Radioactivity concentration, Large intestine mucosa ([2]; 1 day): 2.63 μg equivalents of Compound B/g of tissue
Radioactivity concentration, Oesophageal wall ([2]; 1 day): 2.25 μg equivalents of Compound B/g of tissue
Radioactivity concentration, Rectum mucosa ([2]; 1 day): 0.870 μg equivalents of Compound B/g of tissue
Radioactivity concentration, Small intestine mucosa ([2]; 1 day): 22.6 μg equivalents of Compound B/g of tissue
Radioactivity concentration, Stomach mucosa (fundus) ([2]; 1 day): 1.15 μg equivalents of Compound B/g of tissue
Radioactivity concentration, Stomach mucosa (non-fundic) ([2]; 1 day): 3.87 μg equivalents of Compound B/g of tissue
Radioactivity concentration, Caecum mucosa ([2]; 1 day, *affected by high levels of radioactivity in adjacent contents): 113* μg equivalents of Compound B/g of tissue
Radioactivity concentration, Caecum mucosa ([2]; 3 days): 0.319 μg equivalents of Compound B/g of tissue
Radioactivity concentration, Large intestine mucosa ([2]; 3 days): 1.06 μg equivalents of Compound B/g of tissue
Radioactivity concentration, Oesophageal wall ([2]; 3 days): BLQ (Tissue concentration below lower limit of quantification)
Radioactivity concentration, Rectum mucosa ([2]; 3 days): BLQ (Tissue concentration below lower limit of quantification)
Radioactivity concentration, Small intestine mucosa ([2]; 3 days): 0.197 μg equivalents of Compound B/g of tissue
Radioactivity concentration, Stomach mucosa (fundus) ([2]; 3 days): BLQ (Tissue concentration below lower limit of quantification)
Radioactivity concentration, Stomach mucosa (non-fundic) ([2]; 3 days): 0.253 μg equivalents of Compound B/g of tissue
Radioactivity concentration, Caecum mucosa ([2]; 7 days): 0.374 μg equivalents of Compound B/g of tissue
Radioactivity concentration, Large intestine mucosa ([2]; 7 days): 0.296 μg equivalents of Compound B/g of tissue
Radioactivity concentration, Oesophageal wall ([2]; 7 days): BLQ (Tissue concentration below lower limit of quantification)
Radioactivity concentration, Rectum mucosa ([2]; 7 days): 0.641 μg equivalents of Compound B/g of tissue
Radioactivity concentration, Small intestine mucosa ([2]; 7 days): BLQ (Tissue concentration below lower limit of quantification)
Radioactivity concentration, Stomach mucosa (fundus) ([2]; 7 days): BLQ (Tissue concentration below lower limit of quantification)
Radioactivity concentration, Stomach mucosa (non-fundic) ([2]; 7 days): BLQ (Tissue concentration below lower limit of quantification)
Increase in active GLP-1 (AUC 0-60 mins) versus corn oil+vehicle (active GLP-1; Compound B 84 mg/kg oral in combination with DPP4 inhibitor (linagliptin), OGTT, p<0.05): > 2 fold
Effect on active GLP-1 concentration at 24 h versus corn oil+vehicle (active GLP-1; in combination with DPP4 inhibitor, Compound A 74 mg/kg or Compound B 84 mg/kg oral, two doses): significantly (p<0.01) increased
Expression of IL17a [3]: lack of change
mRNA levels of IL1b compared to untreated mice [3]: dose-dependent decrease
mRNA levels of IL6 compared to untreated mice [3]: dose-dependent decrease
mRNA levels of Reg3g compared to untreated mice [3]: dose-dependent decrease
mRNA levels of S100A8 compared to untreated mice [3]: dose-dependent decrease
mRNA levels of TNFα compared to untreated mice [3]: dose-dependent decrease
